Reference: patent US20030186946A1, “Suppression of cytotoxic protein conformers” (priority 2002, published 2003)
Where two headings read alike, the source gives them in different places.

Tests used:
[1] = target: T1, human amylin (Homo sapiens, UniProt P10997); test: Circular dichroism assay of amylin conformation; assay type: biochemical; design: Amylin is a 37-residue; C-terminally amidated peptide having a disulfide bridge between the cysteines at residues 2 and 7; purchased Bachem Calif; (Torrance, Calif.); host or cells: chemical synthesis; details: for conformation of human amylin (circular dichroism): approximately 4 μM human amylin, 4% HFIP (FIG. 9E)
T1 sequence (P10997 34-70 limits assumed): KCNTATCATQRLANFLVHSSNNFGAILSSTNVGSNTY
Description: Preparation of monomeric human amylin. Human amylin (batch 0551805) was obtained from Bachem (Torrence, Calif.). Stock solutions of amylin were prepared as described by Padrick and Miranker, 2002. Human amylin was solubilised in 6M guanidine HCL/50 mM potassium phosphate, pH 6.0, and loaded onto a C18 reversed-phase spin column (Harvard Biosciences). The column was then washed sequentially with 10% Acetonitrile, 0.2% trifluoroacetic acid and water. Monomeric amylin was eluted in 100% HFIP (hexafluoroisopropanol). This stock solution of amylin was then used for all Circular Dichroism experiments.
Circular Dichroism Assay. Circular dichroism spectra were measured on a Pi-Star 180 spectrometer (Applied Photophysics, Leatherhead, UK). Measurements were carried out in either 100% HFIP or 100 mM potassium chloride/50 mM potassium phosphate buffer (pH 7.4) and 2.5% HFIP at 25° C. A stock solution of monomeric human amylin was diluted into buffer to a final concentration of 2.5% HFIP and approximately 5 μM amylin to initiate amylin fibril formation. Spectra were collected at 1 nm intervals with a sample period of 25 μs and adaptive sampling of ±0.01 mdeg. Measurements were recorded immediately following addition of the human amylin stock solution to phosphate buffer in the presence or absence of Congo red or amaranth.
Human amylin (100 μg) was purified on a C18 spin column to give a stock solution in 100% HFIP as described in the methods. A spectrum of this stock solution was collected at 1 nm intervals in a 0.1 cm path length quartz cell (FIG. 9B). The stock solution of monomeric amylin in 100% HFIP was diluted to 2.5% HFIP in 100 mM potassium chloride/50 mM potassium phosphate buffer (pH 7.4). Human amylin concentration was approximately 5 μM. A spectrum was collected at 1 nm intervals in a 0.5 cm path length quartz cell in the absence (FIG. 9C) or presence of 20-fold molar excess of Congo red over human amylin (FIG. 9D). The stock solution of monomeric amylin in 100% HFIP was diluted to 4% HFIP in 100 mM potassium chloride/50 mM potassium phosphate buffer (pH 7.4) containing decreasing concentrations of Congo red as indicated in the Figure. Human amylin concentration was approximately 4 μM. Spectra were collected at 1 nm intervals in a 0.1 cm path length quartz cell (FIG. 9E). The stock solution of monomeric amylin in 100% HFIP was diluted to 4% HFIP in 100 mM potassium chloride/50 mM potassium phosphate buffer (pH 7.4) containing 200 μM Amaranth. Human amylin concentration was approximately 4 μM. Spectra were collected at 1 nm intervals in a 0.1 cm path length quartz cell (FIG. 9F).

[2] = target: T1, human amylin; details: 10 μM thioflavin-T
Description: Thioflavin-T binding fluorescent assays. The effects of various polycyclic compounds on islet amyloid formation were measured by fluorescence spectroscopy, using a SpectraMAX Gemini XS Fluorescence Spectrophotometer (Molecular Devices Corporation, Sunnyvale, Calif.). Excitation and emission maxima were set to 450 nm and 510 nm respectively using a cutoff filter at 495 nm. Thioflavin-T binds to amylin fibrils, but not to monomeric amylin (Goldsbury et al., (1999), J. Mol. Biol., 285:33-39). […] The rate of amylin fibril formation was determined by following thioflavin-T fluorescence in the presence or absence of the potential inhibitory drug. […] Background fluorescence by acridine and acridine orange in the absence of amylin was subtracted from the experimental results. The control preparation contained human amylin and thioflavin-T in the absence of drug. The rate of fluorescence enhancement under these conditions was used to compare amylin fibril formation in the absence and presence of the drug. All other experimental conditions were identical.
Tri-prolyl amylin and rat amylin with thioflavin-T were also used as additional controls.
Each data point represents the mean±s.e.m of three separate reactions.
Effect of chlorpromazine on enhancement of thioflavin-Tfluorescence by human amylin (FIG. 2). Chlorpromazine (700 μM) (π) was incubated in 10 mM tris p H 7.4, with monomeric human amylin (70 μM) in the presence of thioflavin-T (10 μM). The fluorescence of the reaction was monitored over 24 hours as described in the methods. […] Each data point represents the mean±s.e.m of three separate reactions.
Effect of selected polycylic compounds on enhancement of thioflavin-Tfluorescence by human amylin (FIG. 3). Acridine, acridine orange, neutral red and methylene blue are selected examples of fused tricyclic ring compounds. […] Compound structures are shown adjacent to the appropriate graph. […] Fluorescence was monitored over 24 h as described in the Methods. A preparation containing human amylin and thioflavin-T only (▪), was included as a comparison in the absence of drug. […] Each data point represents the mean±s.e.m of three independent experiments.

For Congo red, the “conformation of human amylin (circular dichroism)” value (shortened to “conformation of human amylin”) ([1]; 0.8 μM Congo red after 1 hr) was “β-sheet”, the “conformation of human amylin” value ([1]; 0.8 μM Congo red) was “random coil” and the “conformation of human amylin” value ([1]; 4 μM Congo red) was “α-helix”. The “conformation of human amylin” value ([1]; 200 μM Congo red) was “α-helix”, the “effect on β-sheet conformer formation of human amylin (circular dichroism)” value ([1]; 20-fold molar excess of Congo red, approximately 5 μM human amylin, 2.5% HFIP, pH 7.4 (FIG. 9D)) was “prevents formation of β-sheet conformers” and the “time amylin remains stable in α-helical structure” value ([1]; excess of Congo red) was “at least 24 hr”. For the same substance, the “enhancement of thioflavin-T fluorescence by human amylin” value ([2]; 700 μM compound, 70 μM human amylin, 10 mM tris pH 7.4, over 72 hours (FIG. 1)) was “no increase in fluorescence beyond that of the rat control preparation” and the “enhancement of thioflavin-T fluorescence by human amylin” value ([2]; 1200 μM compound (20-fold molar excess), 60 μM human amylin, over 24 h (FIG. 3)) was “no increase in thioflavin-T enhanced fluorescence”.
